Laboratory results reported in ChEMBL document CHEMBL1147101, “Development and persistence of antimicrobial resistance in Pseudomonas aeruginosa: a longitudinal observation in mechanically ventilated patients” (Antimicrob Agents Chemother, 2007).
The source made the active and inactive calls. The rule behind the calls is not given here.

Experiments:
Format in all cases: functional, organism-based
Conditions in all cases: Trachea
[1] = test system: Pseudomonas aeruginosa; assay: Antimicrobial activity against Pseudomonas aeruginosa 8C4 tracheal isolates from mechanically ventilated chronic respiratory insufficiency patient
[2] = test system: Pseudomonas aeruginosa; assay: Antimicrobial activity against Pseudomonas aeruginosa 24F4 tracheal isolates from mechanically ventilated chronic respiratory insufficiency patient
[3] = test system: Pseudomonas aeruginosa; assay: Antimicrobial activity against Pseudomonas aeruginosa 2A1 tracheal isolates from mechanically ventilated tuberculosis patient
[4] = test system: Pseudomonas aeruginosa; assay: Antimicrobial activity against Pseudomonas aeruginosa 65.33-3 tracheal isolates from mechanically ventilated tuberculosis patient
[5] = test system: Pseudomonas aeruginosa; assay: Antimicrobial activity against Pseudomonas aeruginosa 65.18-1 tracheal isolates from mechanically ventilated tuberculosis patient
[6] = test system: Pseudomonas aeruginosa; assay: Antimicrobial activity against Pseudomonas aeruginosa 8A12 tracheal isolates from mechanically ventilated chronic respiratory insufficiency patient
[7] = test system: Pseudomonas aeruginosa; assay: Antimicrobial activity against Pseudomonas aeruginosa 10A9 tracheal isolates from mechanically ventilated chronic respiratory insufficiency patient
[8] = test system: Pseudomonas aeruginosa; assay: Antimicrobial activity against Pseudomonas aeruginosa 9A10 tracheal isolates from mechanically ventilated chronic respiratory insufficiency patient
[9] = test system: Pseudomonas aeruginosa; assay: Antimicrobial activity against Pseudomonas aeruginosa IA5 tracheal isolates from mechanically ventilated tuberculosis patient
[10] = test system: Pseudomonas aeruginosa; assay: Antimicrobial activity against Pseudomonas aeruginosa 65.36-4 tracheal isolates from mechanically ventilated tuberculosis patient
[11] = test system: Pseudomonas aeruginosa; assay: Antimicrobial activity against Pseudomonas aeruginosa 29H1 tracheal isolates from mechanically ventilated chronic respiratory insufficiency patient
[12] = test system: Pseudomonas aeruginosa; assay: Antimicrobial activity against Pseudomonas aeruginosa 5F2 tracheal isolates from mechanically ventilated chronic respiratory insufficiency patient
[13] = test system: Pseudomonas aeruginosa; assay: Antimicrobial activity against Pseudomonas aeruginosa 65.18-3 tracheal isolates from mechanically ventilated tuberculosis patient
[14] = test system: Pseudomonas aeruginosa; assay: Antimicrobial activity against Pseudomonas aeruginosa 9A3 tracheal isolates from mechanically ventilated chronic respiratory insufficiency patient
[15] = test system: Pseudomonas aeruginosa; assay: Antimicrobial activity against Pseudomonas aeruginosa 10A6 tracheal isolates from mechanically ventilated chronic respiratory insufficiency patient
[16] = test system: Pseudomonas aeruginosa; assay: Antimicrobial activity against Pseudomonas aeruginosa 9A1 tracheal isolates from mechanically ventilated chronic respiratory insufficiency patient
[17] = test system: Pseudomonas aeruginosa; assay: Antimicrobial activity against Pseudomonas aeruginosa 2A5 tracheal isolates from mechanically ventilated chronic respiratory insufficiency patient
[18] = test system: Pseudomonas aeruginosa; assay: Antimicrobial activity against Pseudomonas aeruginosa 65.18-2 tracheal isolates from mechanically ventilated tuberculosis patient
[19] = test system: Pseudomonas aeruginosa; assay: Antimicrobial activity against Pseudomonas aeruginosa IC7 tracheal isolates from mechanically ventilated tuberculosis patient
[20] = test system: Pseudomonas aeruginosa; assay: Antimicrobial activity against Pseudomonas aeruginosa 24G1 tracheal isolates from mechanically ventilated chronic respiratory insufficiency patient
[21] = test system: Pseudomonas aeruginosa; assay: Antimicrobial activity against Pseudomonas aeruginosa 9A7 tracheal isolates from mechanically ventilated chronic respiratory insufficiency patient
[22] = test system: Pseudomonas aeruginosa; assay: Antimicrobial activity against Pseudomonas aeruginosa 9B2 tracheal isolates from mechanically ventilated chronic respiratory insufficiency patient
[23] = test system: Pseudomonas aeruginosa; assay: Antimicrobial activity against Pseudomonas aeruginosa 2B5 tracheal isolates from mechanically ventilated tuberculosis patient
[24] = test system: Pseudomonas aeruginosa; assay: Antimicrobial activity against Pseudomonas aeruginosa 65.18-4 tracheal isolates from mechanically ventilated tuberculosis patient
[25] = test system: Pseudomonas aeruginosa; assay: Antimicrobial activity against Pseudomonas aeruginosa 5G3 tracheal isolates from mechanically ventilated chronic respiratory insufficiency patient
[26] = test system: Pseudomonas aeruginosa; assay: Antimicrobial activity against Pseudomonas aeruginosa 65.38-2 tracheal isolates from mechanically ventilated tuberculosis patient
[27] = test system: Pseudomonas aeruginosa; assay: Antimicrobial activity against Pseudomonas aeruginosa 24D1 tracheal isolates from mechanically ventilated chronic respiratory insufficiency patient
[28] = test system: Pseudomonas aeruginosa; assay: Antimicrobial activity against Pseudomonas aeruginosa 1C9 tracheal isolates from mechanically ventilated tuberculosis patient
[29] = test system: Pseudomonas aeruginosa; assay: Antimicrobial activity against Pseudomonas aeruginosa 2A6 tracheal isolates from mechanically ventilated tuberculosis patient
[30] = test system: Pseudomonas aeruginosa; assay: Antimicrobial activity against Pseudomonas aeruginosa 19C5 tracheal isolates from mechanically ventilated chronic respiratory insufficiency patient
[31] = test system: Pseudomonas aeruginosa; assay: Antimicrobial activity against Pseudomonas aeruginosa 65.38-4 tracheal isolates from mechanically ventilated tuberculosis patient
[32] = test system: Pseudomonas aeruginosa; assay: Antimicrobial activity against Pseudomonas aeruginosa 24D5 tracheal isolates from mechanically ventilated chronic respiratory insufficiency patient
[33] = test system: Pseudomonas aeruginosa; assay: Antimicrobial activity against Pseudomonas aeruginosa 29F6 tracheal isolates from mechanically ventilated chronic respiratory insufficiency patient
[34] = test system: Pseudomonas aeruginosa; assay: Antimicrobial activity against Pseudomonas aeruginosa 24E2 tracheal isolates from mechanically ventilated chronic respiratory insufficiency patient
[35] = test system: Pseudomonas aeruginosa; assay: Antimicrobial activity against Pseudomonas aeruginosa 19F2 tracheal isolates from mechanically ventilated chronic respiratory insufficiency patient
[36] = test system: Pseudomonas aeruginosa; assay: Antimicrobial activity against Pseudomonas aeruginosa 19D10 tracheal isolates from mechanically ventilated chronic respiratory insufficiency patient
[37] = test system: Pseudomonas aeruginosa; assay: Antimicrobial activity against Pseudomonas aeruginosa 19E1 tracheal isolates from mechanically ventilated chronic respiratory insufficiency patient
[38] = test system: Pseudomonas aeruginosa; assay: Antimicrobial activity against Pseudomonas aeruginosa 16D2 tracheal isolates from mechanically ventilated chronic respiratory insufficiency patient
[39] = test system: Pseudomonas aeruginosa; assay: Antimicrobial activity against Pseudomonas aeruginosa 19C12 tracheal isolates from mechanically ventilated chronic respiratory insufficiency patient
[40] = test system: Pseudomonas aeruginosa; assay: Antimicrobial activity against Pseudomonas aeruginosa 19B1 tracheal isolates from mechanically ventilated chronic respiratory insufficiency patient
[41] = test system: Pseudomonas aeruginosa; assay: Antimicrobial activity against Pseudomonas aeruginosa 23C5 tracheal isolates from mechanically ventilated chronic respiratory insufficiency patient
[42] = test system: Pseudomonas aeruginosa; assay: Antimicrobial activity against Pseudomonas aeruginosa 13D3 tracheal isolates from mechanically ventilated chronic respiratory insufficiency patient
[43] = test system: Pseudomonas aeruginosa; assay: Antimicrobial activity against Pseudomonas aeruginosa 19E12 tracheal isolates from mechanically ventilated chronic respiratory insufficiency patient
[44] = test system: Pseudomonas aeruginosa; assay: Antimicrobial activity against Pseudomonas aeruginosa 24E1 tracheal isolates from mechanically ventilated chronic respiratory insufficiency patient
[45] = test system: Pseudomonas aeruginosa; assay: Antimicrobial activity against Pseudomonas aeruginosa 15G10 tracheal isolates from mechanically ventilated chronic respiratory insufficiency patient
[46] = test system: Pseudomonas aeruginosa; assay: Antimicrobial activity against Pseudomonas aeruginosa 24E6 tracheal isolates from mechanically ventilated chronic respiratory insufficiency patient
[47] = test system: Pseudomonas aeruginosa; assay: Antimicrobial activity against Pseudomonas aeruginosa 19F1 tracheal isolates from mechanically ventilated chronic respiratory insufficiency patient
[48] = test system: Pseudomonas aeruginosa; assay: Antimicrobial activity against Pseudomonas aeruginosa 13D6 tracheal isolates from mechanically ventilated chronic respiratory insufficiency patient
[49] = test system: Pseudomonas aeruginosa; assay: Antimicrobial activity against Pseudomonas aeruginosa 19C2 tracheal isolates from mechanically ventilated chronic respiratory insufficiency patient

`CCn1cc(C(=O)O)c(=O)c2cc(F)c(N3CCNCC3)cc21` was tested, and the Activity [1] was “Active”, the Activity [2] was “Active” and the Activity [3] was “Active”. The Activity [4] was “Active”, the Activity [5] was “Active” and the Activity [6] was “Active”. The Activity [7] was “Active”, the Activity [8] was “Active” and the Activity [9] was “Active”. The Activity [10] was “Active”, the Activity [11] was “inactive” and the Activity [12] was “Active”. The Activity [13] was “Active”, the Activity [14] was “Active” and the Activity [15] was “Active”. The Activity [16] was “Active”, the Activity [17] was “Active” and the Activity [18] was “Active”. The Activity [19] was “Active”, the Activity [20] was “Active” and the Activity [21] was “Active”. The Activity [22] was “Active”, the Activity [23] was “Active” and the Activity [24] was “Active”. For the same compound, the Activity [25] was “Active”, the Activity [26] was “Active” and the Activity [27] was “Active”. For the same compound, the Activity [28] was “Active”, the Activity [29] was “Active” and the Activity [30] was “Active”. The Activity [31] was “Active”, the Activity [32] was “inactive” and the Activity [33] was “Active”.
In the case of `O=C(O)c1cn(C2CC2)c2cc(N3CCNCC3)c(F)cc2c1=O`, the Activity [1] is reported as “Active”, the Activity [2] is reported as “Active” and the Activity [3] is reported as “Active”. For the same compound, the Activity [4] was “Active”, the Activity [5] was “Active” and the Activity [6] was “Active”. The Activity [7] was “Active”, the Activity [8] was “Active” and the Activity [9] was “Active”. For the same compound, the Activity [10] was “Active”, the Activity [11] was “inactive” and the Activity [12] was “Active”. The Activity [13] was “Active”, the Activity [14] was “Active” and the Activity [15] was “Active”. For the same compound, the Activity [16] was “Active”, the Activity [17] was “Active” and the Activity [18] was “Active”. The Activity [19] was “Active”, the Activity [21] was “Active” and the Activity [22] was “Active”. The Activity [23] was “Active”, the Activity [24] was “Active” and the Activity [25] was “Active”. The Activity [26] was “Active”, the Activity [27] was “Active” and the Activity [28] was “Active”. For the same compound, the Activity [29] was “Active”, the Activity [30] was “Active” and the Activity [31] was “Active”. For the same compound, the Activity [33] was “Active”.
`CO/N=C(\C(=O)N[C@@H]1C(=O)N2C(C(=O)[O-])=C(C[N+]3(C)CCCC3)CS[C@H]12)c1csc(N)n1` was tested, and the Activity [1] was “Active”, the Activity [3] was “Active” and the Activity [34] was “Active”. The Activity [5] was “Active”, the Activity [6] was “Active” and the Activity [35] was “Active”. For the same compound, the Activity [7] was “Active”, the Activity [8] was “Active” and the Activity [36] was “Active”. For the same compound, the Activity [9] was “Active”, the Activity [37] was “Active” and the Activity [38] was “Active”. The Activity [10] was “inactive”, the Activity [39] was “Active” and the Activity [40] was “Active”. For the same compound, the Activity [11] was “inactive”, the Activity [12] was “Active” and the Activity [13] was “Active”. For the same compound, the Activity [14] was “Active”, the Activity [15] was “Active” and the Activity [41] was “Active”. The Activity [16] was “Active”, the Activity [17] was “Active” and the Activity [18] was “Active”. The Activity [19] was “Active”, the Activity [20] was “Active” and the Activity [21] was “Active”. For the same compound, the Activity [22] was “Active”, the Activity [23] was “Active” and the Activity [24] was “Active”. For the same compound, the Activity [25] was “Active”, the Activity [42] was “Active” and the Activity [27] was “Active”. The Activity [43] was “Active”, the Activity [28] was “Active” and the Activity [44] was “Active”. For the same compound, the Activity [45] was “Active”, the Activity [46] was “Active” and the Activity [30] was “Active”. For the same compound, the Activity [31] was “Active”, the Antimicrobial activity [47] was “Active” and the Activity [48] was “Active”. For the same compound, the Activity [33] was “Active”.
With `C[C@@H](O)[C@H]1C(=O)N2C(C(=O)O)=C(SCCNC=N)C[C@H]12` the Activity [1] was “Active”, the Activity [2] was “Active” and the Activity [3] was “inactive”. The Activity [34] was “Active”, the Activity [4] was “inactive” and the Activity [5] was “Active”. The Activity [6] was “Active”, the Activity [35] was “Active” and the Activity [7] was “Active”. For the same compound, the Activity [8] was “Active”, the Activity [36] was “Active” and the Activity [37] was “Active”. For the same compound, the Activity [38] was “Active”, the Activity [10] was “inactive” and the Activity [39] was “Active”. The Activity [40] was “Active”, the Activity [12] was “Active” and the Activity [13] was “inactive”. The Activity [14] was “Active”, the Activity [15] was “Active” and the Activity [41] was “Active”. The Activity [16] was “Active”, the Activity [17] was “Active” and the Activity [18] was “Active”. For the same compound, the Activity [19] was “inactive”, the Activity [20] was “Active” and the Activity [21] was “Active”. For the same compound, the Activity [22] was “Active”, the Activity [23] was “inactive” and the Activity [24] was “inactive”. The Activity [25] was “Active”, the Activity [42] was “Active” and the Activity [26] was “inactive”. The Activity [43] was “Active”, the Activity [44] was “Active” and the Activity [45] was “Active”. The Activity [29] was “inactive”, the Activity [46] was “Active” and the Antimicrobial activity [47] was “Active”. The Activity [48] was “Active”, the Activity [32] was “Active” and the Activity [49] was “Active”. For the same compound, the Activity [33] was “Active”.
